Measurements reported in ChEMBL document CHEMBL1131274, “N6-(5,6-epoxynorbornyl)adenosine analogs as A1 adenosine agonists” (Bioorg Med Chem Lett, 1998).
pEC50: −log10 of the molar value.

Assay: Potency to inhibit A1-adenosine receptor mediated cAMP accumulation in DDT1 MF-2 cells
Type: functional, cell-based
Conditions: Mesocricetus auratus

pEC50 | SMILES
6.80 | CCNC(=O)[C@H]1OC(n2cnc3c(NCC4CC5CC4C4OC54)ncnc32)[C@H](O)[C@@H]1O (some centres undefined)
6.66 | CCNC(=O)[C@H]1OC(n2cnc3c(NC4CC5CC4C4OC54)[n+]([O-])cnc32)[C@H](O)[C@@H]1O (some centres undefined)
5.51 | OC[C@H]1OC(n2cnc3c(NCC4CCCCO4)ncnc32)[C@H](O)[C@@H]1O (some centres undefined)
6.58 | CCNC(=O)[C@H]1OC(n2cnc3c(NCc4ccco4)ncnc32)[C@H](O)[C@@H]1O (some centres undefined)
8.14 | OC[C@H]1OC(n2cnc3c(NC4CC=CCC4)ncnc32)[C@H](O)[C@@H]1O (some centres undefined)
7.43 | OC[C@H]1OC(n2cnc3c(NC4CCC5OC5C4)ncnc32)[C@H](O)[C@@H]1O (some centres undefined)
6.73 | OC[C@H]1OC(n2cnc3c(NCC4CC5C=CC4C5)ncnc32)[C@H](O)[C@@H]1O (some centres undefined)
6.19 | CCNC(=O)[C@H]1OC(n2cnc3c(NCC4CCCCO4)ncnc32)[C@H](O)[C@@H]1O (some centres undefined)

Continued, molecule first:

SMILES | pEC50
CCNC(=O)[C@H]1OC(n2cnc3c(NC4CC=CCC4)ncnc32)[C@H](O)[C@@H]1O (some centres undefined) | 8.96
CCNC(=O)[C@H]1OC(n2cnc3c(NCC4CC5C=CC4C5)ncnc32)[C@H](O)[C@@H]1O (some centres undefined) | 7.46
CCNC(=O)[C@H]1OC(n2cnc3c(NCCN4CCOCC4)ncnc32)[C@H](O)[C@@H]1O (some centres undefined) | 7.74
CCNC(=O)[C@H]1OC(n2cnc3c(NC4CCC5OC5C4)ncnc32)[C@H](O)[C@@H]1O (some centres undefined) | 8.23
OC[C@H]1OC(n2cnc3c(NCC4CC5CC4C4OC54)ncnc32)[C@H](O)[C@@H]1O (some centres undefined) | 6.27
OC[C@H]1O[C@@H](n2cnc3c(NC4CCCC4)ncnc32)[C@H](O)[C@@H]1O [N6-CYCLOPENTYLADENOSINE] | 8.55
